Data taken from patent US20230293535A1, “ERBB/BTK INHIBITORS” (Dizal (Jiangsu) Pharmaceutical Co., Ltd., priority 2018, published 2023).
Where a name gives a salt, the structure may show the parent alone. Read-outs that look alike come from different tables or passages of the source.

Assays:
EGFR L858R&T790M = molecular target: T1, EGFR L858R&T790M (Homo sapiens, UniProt P00533, L858R/T790M); experiment: EGFR L858R and T790M cellular phosphorylation inhibition in NCI-H1975 (MSD); type: cell-based; details: NCI-H1975 cells, 4 h compound, p-EGFR(Y1068)/total EGFR; read-out: EGFR L858R and T790M mutation IC50;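 note: phosphorylated and total EGFR detected by electrochemiluminescence, cells exposed to compound in medium containing 1% FBS at 37 °C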
T1 construct: host or cells: NCI-H1975

OCI-LY-10 cells = experiment: BTK (wt) cell proliferation, OCI-LY-10 (CellTiter-Glo, 72 h); type: cell-based; details: Homo sapiens, OCI-Ly10, 72 h, OCI-LY-10 cells, 72 h, CellTiter-Glo; read-out: BTK WT OCI-LY-10 GI50;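 note: viable cells quantified via cellular ATP luminescence, proliferation given as percent of DMSO control after subtracting a duplicate plate read at time of dosing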
Ba/F3 EGFR NPH ins cells = experiment: Cell proliferation, Ba/F3 EGFR NPH ins (CellTiter-Glo, 72 h); type: cell-based; details: Ba/F3 EGFR, 72 h;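 note: IL3-independent cells carrying constitutively phosphorylated EGFR, compound dilution series, viable cells quantified by ATP luminescence, growth relative to DMSO wells after subtracting pre-dosing (day 0) baseline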
[1] = molecular target: T2, human EGFR exon 20 H773_V774insNPH (Homo sapiens, UniProt P00533, INS773NPH); experiment: EGFR Exon20 NPH insertion cellular phosphorylation inhibition (MSD pEGFR Y1068/total EGFR); type: cell-based; details: Ba/F3 EGFR NPH ins cells, 4 h compound, p-EGFR(Y1068)/total EGFR;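 note: IL3-independent Ba/F3 cells with constitutively phosphorylated EGFR, compound exposure at 37 °C under 5% CO2, electrochemiluminescent MSD measurement of the p-EGFR to total EGFR ratio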
T2 construct: host or cells: Ba/F3

WT EGFR = molecular target: T3, WT EGFR (Homo sapiens, UniProt P00533); experiment: WT EGFR cellular phosphorylation inhibition in A-431 (hEGF stimulated, MSD); type: cell-based; details: A431 cells, 4 h compound, then 100 ng/ml hEGF 10 min;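 note: electrochemiluminescence read-out of EGFR Tyr1068 phosphorylation expressed as ratio to total EGFR, cells kept in medium with 1% FBS, compounds tested as a concentration series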
T3 construct: host or cells: A-431

DB cells = experiment: BTK (wt) cell proliferation, DB (CellTiter-Glo, 72 h); type: cell-based; details: Homo sapiens, DB, DB cells, CellTiter-Glo, read-out: Non-BCR activated DB GI50;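 note: DB cells in 384-well plates given a dilution series of compound, viable cells read by ATP luminescence, growth expressed versus DMSO control after subtracting a time-zero plate reading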
WT EGFR cell line A-431 = experiment: Cell proliferation, WT EGFR A431 (CellTiter-Glo, 72 h); type: cell-based; details: Homo sapiens, A-431, 72 h;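 note: proliferation from a luminescent ATP viability signal, expressed as 100 × (treated minus time-zero plate) over (DMSO control minus time-zero plate), cells grown with 10% FBS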
Ri-1 cells = experiment: BTK (wt) cell proliferation, Ri-1 (CellTiter-Glo, 72 h); type: cell-based; details: Ri-1, 72 h, Ri-1 cells, 72 h, CellTiter-Glo; read-out: BTK WT Ri-1 GI50;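 note: viable cells quantified as cellular ATP luminescence, proliferation normalized to a time-zero plate and the DMSO control, compounds tested across a dilution series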
TMD-8 cells = experiment: BTK (wt) cell proliferation, TMD-8 (CellTiter-Glo, 72 h); type: cell-based; details: Homo sapiens, TMD8, 72 h, TMD-8 cells, 72 h, CellTiter-Glo; read-out: BTK WT TMD-8 GI50;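 note: viable cells quantified by ATP-based luminescence, proliferation expressed as percent of DMSO control after subtracting a time-zero baseline plate read at dosing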
[2] = tested on: Her2 exon 20 insertion YVMA transduced NIH-3T3 cell line; experiment: Cell proliferation, Her2 YVMAins NIH-3T3 (CellTiter-Glo, 72 h); type: cell-based; details: Mus musculus, NIH3T3, 72 h, Her2 YVMAins cells, 72 h proliferation; read-out: Her2 Exon 20 YVMA insertion GI50;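 note: viable cells quantified by ATP luminescence, growth over a day-zero baseline plate expressed as percent of DMSO control growth, compound dilution series in 10% FBS medium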
Description: WT or mutant cells were seeded in 384 well plates at appropriate concentrations with corresponding growth media supplemented with 10% FBS, for each experiment, identical plates were prepared in duplicates, and the plates were incubated overnight. On the next day, one of each duplicated plates was dosed with tested compounds at a series of concentrations, and another one of the duplicated plate was analysied for G0 value. The dosed plates were incubate for another 72 h at 37° C. with 5% CO2 and the number of viable cells in each well of the G0 plates or the dosed plates were measured by CellTiter-Glo® Luminescent Cell Viability Assay (Promega). This assay is a luminescent method for determining the number viable cells through measurement of cellular ATP concentration by detection of luciferase activity. Detection reagents (15 µl) was dispensed into per well, and the plates were incubate for 30 min at room temperature. Then, the luminescence in each well was measured using the Envision plate reader (PerkinElmer). The percentage of proliferation was calculated based on the formula: %Proliferation= 100 × (G3 value of sample well-Go value)/(G3 value of DMSO control-Go value).

[3] = tested on: NCI-H1975 EGFR L858R/T790M cells; experiment: Cell proliferation, NCI-H1975 EGFR L858R/T790M (CellTiter-Glo, 72 h); type: cell-based; details: Homo sapiens, NCI-H1975, 72 h;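 note: viable cells quantified by luciferase-based ATP luminescence, proliferation expressed relative to DMSO-treated wells (100%) after subtracting a parallel plate read at the time of dosing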
Ba/F3 EGFR ASV ins cells = experiment: Cell proliferation, Ba/F3 EGFR ASV ins (CellTiter-Glo, 72 h); type: cell-based; details: Ba/F3 EGFR, 72 h;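 note: IL3-independent Ba/F3 cells transduced with EGFR V769_D770insASV, cellular ATP luminescence after compound exposure, growth relative to DMSO control with the day-0 baseline reading subtracted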
[4] = molecular target: T4, human Her2 exon 20 insertion mutation YVMA (Homo sapiens, UniProt P04626, INS775YVMA); experiment: Her2 Exon 20 YVMA insertion cellular phosphorylation inhibition (MSD p-Her2 Y1248/total Her2); type: cell-based; details: Her2 YVMAins cells, 4 h compound;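 note: lentivirally transduced NIH-3T3 cells in 1% FBS medium, electrochemiluminescent MSD read-out, graded compound concentrations at 37 °C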
T4 construct: expressed in transfected cells; host or cells: NIH-3T3, lentiviral transduction, puromycin selection

[5] = molecular target: T5, human EGFR exon 20 V769_D770insASV (Homo sapiens, UniProt P00533, INS769ASV); experiment: EGFR Exon20 ASV insertion cellular phosphorylation inhibition (MSD pEGFR Y1068/total EGFR); type: cell-based; details: Ba/F3 EGFR ASV ins cells, 4 h compound, p-EGFR(Y1068)/total EGFR;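 note: electrochemiluminescent readout on an MSD SECTOR Imager, IL3-independent transduced cells in medium with 1% FBS, compound concentration series at 37 °C and 5% CO2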
T5 construct: expressed in transfected cells; host or cells: Ba/F3 (DSMZ ACC-300), lentiviral transduction, puromycin selection, IL3 depletion

[6] = In vitro human hepatocytes clearance assay; details: both, human, cryopreserved human hepatocytes (suspension), human hepatocytes Clint (µL/min/10^6cells), mixed gender human hepatocytes, incubation up to 100 min
[7] = read-out: EGFR Exon20 NPH insertion GI50 (nM)
[8] = read-out: EGFR WT A431 GI50 (nM)
[9] = read-out: EGFR L858R and T790M mutation GI50 (nM)
[10] = read-out: EGFR Exon20 ASV insertion GI50 (nM)
[11] = Ba/F3 EGFR NPH ins, 72 h proliferation, read-out: EGFR Exon20 NPH insertion GI50
[12] = A431, 72 h proliferation, read-out: EGFR WT A431 GI50
[13] = NCI-H1975, 72 h proliferation, read-out: EGFR L858R and T790M mutation GI50
[14] = Ba/F3 EGFR ASV ins, 72 h proliferation, read-out: EGFR Exon20 ASV insertion GI50

T5 sequence (P00533 with tags, fused parts or gaps INS769ASV): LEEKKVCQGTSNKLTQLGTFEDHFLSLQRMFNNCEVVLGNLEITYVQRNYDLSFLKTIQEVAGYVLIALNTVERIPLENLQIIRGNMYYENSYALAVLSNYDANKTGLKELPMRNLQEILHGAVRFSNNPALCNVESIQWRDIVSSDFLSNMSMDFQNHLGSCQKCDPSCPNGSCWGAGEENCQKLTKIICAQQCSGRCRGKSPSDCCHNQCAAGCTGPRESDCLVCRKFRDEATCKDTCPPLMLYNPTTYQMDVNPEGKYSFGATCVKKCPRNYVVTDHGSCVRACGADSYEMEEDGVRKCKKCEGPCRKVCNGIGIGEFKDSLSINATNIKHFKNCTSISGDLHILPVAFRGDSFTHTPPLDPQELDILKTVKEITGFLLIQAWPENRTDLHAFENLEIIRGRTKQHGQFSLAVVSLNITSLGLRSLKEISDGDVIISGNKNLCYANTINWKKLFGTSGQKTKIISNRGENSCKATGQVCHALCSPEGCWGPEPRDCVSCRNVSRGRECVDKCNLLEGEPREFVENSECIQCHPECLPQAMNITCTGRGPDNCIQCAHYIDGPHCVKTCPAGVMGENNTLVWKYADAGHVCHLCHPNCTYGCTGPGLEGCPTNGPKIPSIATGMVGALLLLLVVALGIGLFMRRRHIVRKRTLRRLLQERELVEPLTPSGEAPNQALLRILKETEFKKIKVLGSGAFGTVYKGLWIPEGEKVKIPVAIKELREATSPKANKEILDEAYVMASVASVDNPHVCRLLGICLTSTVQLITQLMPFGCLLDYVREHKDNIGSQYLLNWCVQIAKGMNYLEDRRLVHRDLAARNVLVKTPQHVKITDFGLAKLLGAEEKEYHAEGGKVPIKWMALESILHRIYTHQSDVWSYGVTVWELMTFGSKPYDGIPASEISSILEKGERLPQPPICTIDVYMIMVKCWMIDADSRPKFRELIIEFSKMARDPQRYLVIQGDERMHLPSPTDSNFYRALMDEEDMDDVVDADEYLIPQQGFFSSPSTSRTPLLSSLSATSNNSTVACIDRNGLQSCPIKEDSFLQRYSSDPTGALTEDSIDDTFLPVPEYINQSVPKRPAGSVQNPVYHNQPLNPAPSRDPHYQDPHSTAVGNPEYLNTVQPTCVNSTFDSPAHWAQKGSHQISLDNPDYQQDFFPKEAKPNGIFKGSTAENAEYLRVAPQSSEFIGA
T2 sequence (P00533 with tags, fused parts or gaps INS773NPH): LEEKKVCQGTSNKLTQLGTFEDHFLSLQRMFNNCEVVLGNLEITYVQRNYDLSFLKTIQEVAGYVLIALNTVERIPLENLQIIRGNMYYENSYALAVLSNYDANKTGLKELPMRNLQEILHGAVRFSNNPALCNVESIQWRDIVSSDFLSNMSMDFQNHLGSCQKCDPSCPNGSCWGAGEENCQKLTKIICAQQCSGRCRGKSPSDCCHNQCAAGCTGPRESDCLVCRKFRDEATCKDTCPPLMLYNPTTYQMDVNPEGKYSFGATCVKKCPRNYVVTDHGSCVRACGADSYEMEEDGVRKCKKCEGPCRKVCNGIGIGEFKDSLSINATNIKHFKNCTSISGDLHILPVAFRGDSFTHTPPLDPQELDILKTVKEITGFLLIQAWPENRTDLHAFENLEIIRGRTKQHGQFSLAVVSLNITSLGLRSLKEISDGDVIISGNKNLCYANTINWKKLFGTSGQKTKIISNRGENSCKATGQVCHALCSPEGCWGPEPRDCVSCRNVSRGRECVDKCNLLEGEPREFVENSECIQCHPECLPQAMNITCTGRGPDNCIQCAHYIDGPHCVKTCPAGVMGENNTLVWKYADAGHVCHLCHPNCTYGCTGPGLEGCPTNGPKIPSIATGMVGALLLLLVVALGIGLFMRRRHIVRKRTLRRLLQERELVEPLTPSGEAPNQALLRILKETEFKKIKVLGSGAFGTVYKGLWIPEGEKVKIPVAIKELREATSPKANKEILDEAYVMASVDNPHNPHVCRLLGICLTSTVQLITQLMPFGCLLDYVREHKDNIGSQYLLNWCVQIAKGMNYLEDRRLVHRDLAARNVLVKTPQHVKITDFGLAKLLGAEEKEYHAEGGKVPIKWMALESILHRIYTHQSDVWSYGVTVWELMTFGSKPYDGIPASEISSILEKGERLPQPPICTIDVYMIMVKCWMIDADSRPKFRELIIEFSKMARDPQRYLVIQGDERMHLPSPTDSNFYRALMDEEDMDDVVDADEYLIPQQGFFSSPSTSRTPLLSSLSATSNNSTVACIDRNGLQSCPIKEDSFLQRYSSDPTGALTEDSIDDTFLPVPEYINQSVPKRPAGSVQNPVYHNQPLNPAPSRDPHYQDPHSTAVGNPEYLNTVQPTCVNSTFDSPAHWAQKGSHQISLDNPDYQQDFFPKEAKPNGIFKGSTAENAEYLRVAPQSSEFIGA
T1 sequence (P00533 25-1210 T790M/L858R): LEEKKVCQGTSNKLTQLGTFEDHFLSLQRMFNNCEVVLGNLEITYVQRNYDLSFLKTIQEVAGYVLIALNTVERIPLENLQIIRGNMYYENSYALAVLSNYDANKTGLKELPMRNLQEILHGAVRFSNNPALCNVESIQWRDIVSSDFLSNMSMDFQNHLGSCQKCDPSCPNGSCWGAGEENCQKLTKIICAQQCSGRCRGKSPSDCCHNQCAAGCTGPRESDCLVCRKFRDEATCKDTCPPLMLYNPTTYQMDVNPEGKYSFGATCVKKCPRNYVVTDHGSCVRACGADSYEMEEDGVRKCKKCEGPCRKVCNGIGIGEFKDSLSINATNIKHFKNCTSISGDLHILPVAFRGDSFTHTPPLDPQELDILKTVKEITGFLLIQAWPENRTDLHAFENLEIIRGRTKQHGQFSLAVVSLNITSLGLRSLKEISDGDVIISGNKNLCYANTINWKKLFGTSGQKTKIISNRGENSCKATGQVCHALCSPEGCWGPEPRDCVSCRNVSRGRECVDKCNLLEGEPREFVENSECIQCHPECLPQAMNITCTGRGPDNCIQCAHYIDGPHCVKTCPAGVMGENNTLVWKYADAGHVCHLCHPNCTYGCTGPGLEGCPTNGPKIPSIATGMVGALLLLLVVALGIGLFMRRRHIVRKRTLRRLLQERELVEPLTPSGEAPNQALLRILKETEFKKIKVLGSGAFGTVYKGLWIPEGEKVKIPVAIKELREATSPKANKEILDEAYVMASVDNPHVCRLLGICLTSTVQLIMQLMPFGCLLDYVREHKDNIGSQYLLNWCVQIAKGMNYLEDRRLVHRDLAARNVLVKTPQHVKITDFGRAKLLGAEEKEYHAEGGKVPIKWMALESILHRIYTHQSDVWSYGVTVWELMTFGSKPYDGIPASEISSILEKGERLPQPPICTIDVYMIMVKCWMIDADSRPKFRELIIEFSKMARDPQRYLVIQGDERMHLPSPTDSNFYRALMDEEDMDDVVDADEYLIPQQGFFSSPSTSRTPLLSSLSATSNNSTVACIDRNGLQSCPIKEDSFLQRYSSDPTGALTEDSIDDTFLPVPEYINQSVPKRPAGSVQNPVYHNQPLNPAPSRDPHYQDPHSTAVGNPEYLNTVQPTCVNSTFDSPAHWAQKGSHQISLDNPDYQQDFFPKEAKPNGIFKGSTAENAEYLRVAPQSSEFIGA
T4 sequence (P04626 with tags, fused parts or gaps INS775YVMA): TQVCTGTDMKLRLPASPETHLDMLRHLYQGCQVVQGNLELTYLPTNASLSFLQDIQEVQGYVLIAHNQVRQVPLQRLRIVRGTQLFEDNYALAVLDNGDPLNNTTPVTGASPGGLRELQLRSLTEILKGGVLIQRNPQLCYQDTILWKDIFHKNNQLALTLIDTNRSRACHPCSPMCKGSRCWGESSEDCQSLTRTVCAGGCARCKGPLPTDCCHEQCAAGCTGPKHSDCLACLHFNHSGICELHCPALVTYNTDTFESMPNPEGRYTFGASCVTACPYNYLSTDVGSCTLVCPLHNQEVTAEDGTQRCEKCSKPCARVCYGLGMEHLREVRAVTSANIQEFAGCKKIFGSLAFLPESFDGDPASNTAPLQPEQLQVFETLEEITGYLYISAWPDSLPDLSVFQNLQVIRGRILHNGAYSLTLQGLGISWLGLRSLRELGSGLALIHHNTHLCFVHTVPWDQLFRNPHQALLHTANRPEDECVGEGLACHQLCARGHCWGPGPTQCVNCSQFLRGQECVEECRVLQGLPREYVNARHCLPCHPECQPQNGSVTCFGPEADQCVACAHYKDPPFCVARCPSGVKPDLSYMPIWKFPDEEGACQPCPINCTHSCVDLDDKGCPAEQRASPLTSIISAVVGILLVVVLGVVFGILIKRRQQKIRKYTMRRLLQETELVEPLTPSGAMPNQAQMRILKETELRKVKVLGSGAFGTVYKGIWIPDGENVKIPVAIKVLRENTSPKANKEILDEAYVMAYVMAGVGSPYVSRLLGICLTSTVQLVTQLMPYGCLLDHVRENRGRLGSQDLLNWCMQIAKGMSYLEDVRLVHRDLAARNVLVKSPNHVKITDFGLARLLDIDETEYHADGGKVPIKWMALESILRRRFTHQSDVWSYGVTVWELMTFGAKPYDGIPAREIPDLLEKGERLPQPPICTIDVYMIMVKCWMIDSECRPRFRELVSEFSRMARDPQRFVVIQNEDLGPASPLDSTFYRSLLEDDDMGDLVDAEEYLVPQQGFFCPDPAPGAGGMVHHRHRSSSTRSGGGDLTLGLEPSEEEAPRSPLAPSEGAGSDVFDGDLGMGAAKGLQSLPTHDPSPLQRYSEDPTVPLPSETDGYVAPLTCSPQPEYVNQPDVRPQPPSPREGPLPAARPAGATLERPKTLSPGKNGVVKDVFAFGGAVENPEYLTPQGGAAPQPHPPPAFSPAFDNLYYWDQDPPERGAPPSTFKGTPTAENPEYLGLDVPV

Row | Structure (SMILES) | IC50 (EGFR L858R&T790M) [µM] | GI50 (OCI-LY-10 cells) [µM] | GI50 (Ba/F3 EGFR NPH ins cells; [7]) [nM] | IC50 [1] [µM] | IC50 (WT EGFR) [µM] | GI50 (DB cells) [µM] | GI50 (WT EGFR cell line A-431; [8]) [nM] | GI50 (Ri-1 cells) [µM] | GI50 (TMD-8 cells) [µM] | GI50 [2] [µM] | GI50 [3, 9] [nM] | GI50 (Ba/F3 EGFR ASV ins cells; [10]) [nM] | IC50 [4] [µM] | IC50 [5] [µM] | hepatocyte CLint at 1 µM [6] [µL/min/1e6 cells] | GI50 (Ba/F3 EGFR NPH ins cells; [11]) [nM] | GI50 (WT EGFR cell line A-431; [12]) [nM] | GI50 [3, 13] [nM] | GI50 (Ba/F3 EGFR ASV ins cells; [14]) [nM]
1 | C=CC(=O)Nc1cc(Nc2nccc(Nc3cc(Cl)c(F)cc3C(C)(C)O)n2)c(OC)cc1N1C[C@H](F)C[C@@H]1CN(C)C [Compound 88, N-(5-(4-(5-chloro-4-fluoro-2-(2-hydroxypropan-2-yl)phenylamino)pyrimidin-2-ylamino)-2-((2R,4R)-2-((dimethylamino)methyl)-4-fluoropyrrolidin-1-yl)-4-methoxyphenyl) acrylamide formic acid salt] | 0.0005 | 0.00157 | 18.8 | 0.0101 | 0.0278 | > 3 | 6.9 | 0.012 | 0.00649 | 0.0312 | 1.8 | 14 | 0.0045 | 0.0075 | – | – | – | – | –
2 | C=CC(=O)Nc1cc(Nc2nccc(Nc3cc(Cl)c(F)cc3C(C)(C)O)n2)c(OC)cc1N1C[C@H]2CN(C)[C@H]2C1 [Compound 89, N-(5-(4-(5-chloro-4-fluoro-2-(2-hydroxypropan-2-yl)phenylamino)pyrimidin-2-ylamino)-4-methoxy-2-((1R,5R)-6-methyl-3,6-diazabicyclo[3.2.0]heptan-3-yl)phenyl)acrylamide formic acid salt] | 0.0007 | 0.0114 | 63.8 | 0.0148 | 0.148 | > 3 | 63.1 | 0.0175 | 0.00986 | 0.158 | 2.8 | 115 | 0.0068 | 0.023 | 3.84 | – | – | – | –
3 | C=CC(=O)Nc1cc(Nc2nccc(Nc3cc(Cl)c(F)cc3C(C)(C)O)n2)c(OC)cc1N1C[C@@H](C)C[C@@H]1CN(C)C [Compound 91, N-(5-(4-(5-chloro-4-fluoro-2-(2-hydroxypropan-2-yl)phenylamino)pyrimidin-2-ylamino)-2-((2R,4S)-2-((dimethylamino)methyl)-4-methylpyrrolidin-l-yl)-4-methoxyphenyl) acrylamide] | 0.0015 | 0.0868 | – | 0.0262 | 0.183 | > 3 | – | 0.0794 | 0.058 | 0.148 | – | – | 0.0225 | 0.0412 | 8.57 | 64.6 | 31.5 | 2.2 | 69.6
4 | C=CC(=O)Nc1cc(Nc2nccc(Nc3cc(Cl)c(F)cc3C(C)(O)C(F)(F)F)n2)c(OC)cc1N1CC[C@@H](N(C)C)C1 (stereo partly drawn) [Compound 92, N-(5-(4-(5-chloro-4-fluoro-2-(1,1,1-trifluoro-2-hydroxypropan-2-yl)phenylamino)pyrimidin-2-ylamino)-2-((R)-3-(dimethylamino)pyrrolidin-1-yl)-4-methoxyphenyl) acrylamide] | 0.0017 | 0.228 | – | 0.0799 | 0.765 | 1.2 | – | 0.146 | 0.0638 | 0.212 | – | – | 0.026 | 0.0712 | – | 84.7 | 40.6 | 4.9 | 92.1
5 | C=CC(=O)Nc1cc(Nc2ncnc(Nc3ccc4[nH]ccc4c3C(C)(C)O)n2)c(OC)cc1N(C)CCN(C)C [Compound 94, N-(2-((2-(dimethylamino)ethyl)(methyl)amino)-5-(4-(4-(2-hydroxypropan-2-yl)-1H-indol-5-ylamino)-1,3,5-triazin-2-ylamino)-4-methoxyphenyl)acrylamide] | 0.0007 | 0.0216 | – | 0.0285 | 0.0289 | > 3 | – | 0.209 | 0.0948 | 0.141 | – | – | 0.0044 | 0.0177 | – | 94.9 | 16.5 | 6.4 | 80.9
6 | C=CC(=O)Nc1cc(Nc2ncnc(Nc3cc4cc[nH]c4cc3C(C)(C)O)n2)c(OC)cc1N(C)CCN(C)C [Compound 95, N-(2-((2-(dimethylamino)ethyl)(methyl)amino)-5-(4-(6-(2-hydroxypropan-2-yl)-1H-indol-5-ylamino)-1,3,5-triazin-2-ylamino)-4-methoxyphenyl)acrylamide] | 0.0003 | 0.00029 | – | 0.0071 | 0.0035 | > 3 | – | 0.971 | 0.00116 | 0.0158 | – | – | 0.0022 | 0.0062 | – | 20.5 | 2.9 | 3.7 | 16
7 | C=CC(=O)Nc1cc(Nc2nccc(Nc3cc(Cl)c(F)cc3C(C)(C)O)n2)c(OC)cc1N1C[C@@H]2CN(C)[C@@H]2C1 [Compound 97, N-(5-(4-(5-chloro-4-fluoro-2-(2-hydroxypropan-2-yl)phenylamino)pyrimidin-2-ylamino)-4-methoxy-2-((1 S,5 S)-6-methyl-3,6-diazabicyclo[3.2.0]heptan-3-yl)phenyl)acrylamide formic acid salt] | 0.0007 | 0.024 | 74.2 | 0.0174 | 0.16 | > 3 | 38 | 0.0547 | 0.0186 | 0.0939 | 3.4 | 86.7 | 0.0028 | 0.0144 | 4.25 | – | – | – | –
